Assays:
Assay type in all cases: in vivo
[1] = system: Surinam grass (Brachiaria decumbens); experiment: Test B pre-/postemergence plant response; conditions: Postemergence
How it was run: (§1)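 Compound in solvent + surfactant applied pre-em (loam/sand) or post-em (plants 2–18 cm, peat medium); greenhouse hold 13–15 days; visual 0–100 control score.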

[2] = system: blackgrass (Alopecurus myosuroides); experiment: Test B pre-/postemergence plant response; conditions: for Plant response rating, Blackgrass: Postemergence
How it was run: as §1

[3] = system: corn (Zea mays); experiment: Test B pre-/postemergence plant response; conditions: Postemergence
How it was run: as §1

[4] = system: giant foxtail (Setaria faberii); experiment: Test B pre-/postemergence plant response; conditions: Postemergence
How it was run: as §1

[5] = system: goosegrass (Eleusine indica); experiment: Test B pre-/postemergence plant response; conditions: Postemergence
How it was run: as §1

[6] = system: green foxtail (Setaria viridis); experiment: Test B pre-/postemergence plant response; conditions: Postemergence
How it was run: as §1

[7] = system: johnsongrass (Sorghum halepense); experiment: Test B pre-/postemergence plant response; conditions: Postemergence
How it was run: as §1

[8] = system: lambsquarters (Chenopodium album); experiment: Test B pre-/postemergence plant response; conditions: Postemergence
How it was run: as §1

[9] = system: pigweed (Amaranthus retroflexus); experiment: Test B pre-/postemergence plant response; conditions: Postemergence
How it was run: as §1

[10] = system: ragweed (common ragweed, Ambrosia elatior); experiment: Test B pre-/postemergence plant response; conditions: Postemergence
How it was run: as §1

[11] = system: wild oat (Avena fatua); experiment: Test B pre-/postemergence plant response; conditions: Postemergence
How it was run: as §1

[12] = system: rice (Oryza sativa); experiment: Test B flooded paddy test; conditions: for Plant response rating, Rice: Flood (flooded paddy test), 13 to 15 days
How it was run: (§2)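 Each compound is added to standing floodwater (3 cm above soil, maintained) in pots of 2-leaf-stage plants; greenhouse exposure lasts 13–15 d before visual comparison with controls on a 0–100 control scale.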

[13] = system: umbrella sedge (Cyperus difformis); experiment: Test B flooded paddy test; conditions: for Plant response rating, Sedge, Umbrella: Flood (flooded paddy test), 13 to 15 days
How it was run: as §2

[14] = 31 g ai/ha, 0 to 100 scale (0 no effect, 100 complete control)
[15] = 62 g ai/ha, scale 0 to 100 (0 no effect, 100 complete control)
[16] = 250 g ai/ha, scale 0 to 100 (0 no effect, 100 complete control), 13 to 15 days
[17] = 125 g ai/ha, scale 0 to 100 (0 no effect, 100 complete control)
[18] = 250 g ai/ha, flooded paddy test, visual rating on 0 to 100 scale (0 no effect, 100 complete control) after 13 to 15 days
[19] = 62 g ai/ha, scale of 0 to 100 where 0 is no effect and 100 is complete control
[20] = 125 g ai/ha, scale 0 to 100, 0 is no effect, 100 is complete control
[21] = Flood, 31 g ai/ha, scale 0 to 100 (0 no effect, 100 complete control)

Cc1ccccc1-n1c(-c2cc(F)cc(F)c2)ncc(C(=O)C2=C(O)CCCC2=O)c1=O [Compound 159]
Plant response rating, Surinam Grass ([1]; 8 g ai/ha, 0 to 100 scale): 65 | Plant response rating, Surinam Grass ([1]; 16 g ai/ha, 0 to 100 scale): 65 | Plant response rating, Surinam Grass [1, 14]: 75 | Plant response rating, Blackgrass ([2]; 8 g ai/ha, 0 to 100 scale): 0 | Plant response rating, Blackgrass ([2]; 16 g ai/ha, 0 to 100 scale): 5 | Blackgrass plant response rating (0 to 100 scale) ([2]; 62 g ai/ha, postemergence, 0 is no effect, 100 is complete control, 13 to 15 days): 25 | Plant response rating, Blackgrass [2, 14]: 20 | Plant response rating, Corn ([3]; 8 g ai/ha, 0 to 100 scale): 15 | Plant response rating, Corn ([3]; 16 g ai/ha, 0 to 100 scale): 25 | Plant response rating, Corn [3, 14]: 60 | Plant response rating, Foxtail, Giant ([4]; 8 g ai/ha, 0 to 100 scale): 75 | Plant response rating, Foxtail, Giant ([4]; 16 g ai/ha, 0 to 100 scale): 80 | Plant response rating, Foxtail, Giant [4, 14]: 85 | Plant response rating, Goosegrass ([5]; 8 g ai/ha, 0 to 100 scale): 70 | Plant response rating, Goosegrass ([5]; 16 g ai/ha, 0 to 100 scale): 80 | Plant response rating, Goosegrass [5, 14]: 85 | Plant response rating, Foxtail, Green ([6]; 8 g ai/ha, 0 to 100 scale): 50 | Plant response rating, Foxtail, Green ([6]; 16 g ai/ha, 0 to 100 scale): 80 | Plant response rating, Foxtail, Green [6, 14]: 85 | Plant response rating, Johnsongrass ([7]; 8 g ai/ha, 0 to 100 scale): 10 | Plant response rating, Johnsongrass ([7]; 16 g ai/ha, 0 to 100 scale): 45 | Plant response rating, Johnsongrass [7, 14]: 45 | Plant response rating, Lambsquarters ([8]; 8 g ai/ha, 0 to 100 scale): 90 | Plant response rating, Lambsquarters ([8]; 16 g ai/ha, 0 to 100 scale): 95 | Plant response rating, Lambsquarters [8, 14]: 100 | Plant response rating, Pigweed ([9]; 8 g ai/ha, 0 to 100 scale): 55 | Plant response rating, Pigweed ([9]; 16 g ai/ha, 0 to 100 scale): 75 | Plant response rating, Pigweed [9, 14]: 95 | Plant response rating, Ragweed ([10]; 8 g ai/ha, 0 to 100 scale): 65 | Plant response rating, Ragweed ([10]; 16 g ai/ha, 0 to 100 scale): 80 | Plant response rating, Ragweed [10, 14]: 90 | Plant response rating, Oat, Wild ([11]; 8 g ai/ha, 0 to 100 scale): 0 | Plant response rating, Oat, Wild ([11]; 16 g ai/ha, 0 to 100 scale): 35 | Plant response rating, Oat, Wild [11, 14]: 60

O=C1CCCC(O)=C1C(=O)c1cnc(-c2ccc(F)cc2)n(C2CCCCC2)c1=O [Compound 197]
Plant response rating, Surinam Grass [1, 14]: 50 | Plant response rating, Surinam Grass [1, 15]: 55 | Plant response rating, Surinam Grass [1, 16]: 70 | Plant response rating, Blackgrass [2, 14]: 0 | Plant response rating, Blackgrass [2, 15]: 10 | Plant response rating, Blackgrass [2, 17]: 10 | Plant response rating, Blackgrass [2, 16]: 45 | Plant response rating, Corn [3, 14]: 15 | Plant response rating, Corn [3, 15]: 35 | Plant response rating, Corn [3, 17]: 45 | Plant response rating, Corn [3, 16]: 65 | Plant response rating, Foxtail, Giant [4, 14]: 85 | Plant response rating, Foxtail, Giant [4, 15]: 95 | Plant response rating, Foxtail, Giant [4, 17]: 98 | Plant response rating, Foxtail, Giant [4, 16]: 100 | Plant response rating, Goosegrass [5, 14]: 85 | Plant response rating, Goosegrass [5, 15]: 98 | Plant response rating, Goosegrass [5, 17]: 100 | Plant response rating, Goosegrass [5, 16]: 100 | Plant response rating, Foxtail, Green [6, 14]: 5 | Plant response rating, Foxtail, Green [6, 15]: 30 | Plant response rating, Foxtail, Green [6, 17]: 50 | Plant response rating, Foxtail, Green [6, 16]: 70 | Plant response rating, Johnsongrass [7, 14]: 70 | Plant response rating, Johnsongrass [7, 15]: 85 | Plant response rating, Johnsongrass [7, 17]: 95 | Plant response rating, Johnsongrass [7, 16]: 100 | Plant response rating, Lambsquarters [8, 14]: 95 | Plant response rating, Lambsquarters [8, 15]: 100 | Plant response rating, Lambsquarters [8, 17]: 100 | Plant response rating, Lambsquarters [8, 16]: 100 | Plant response rating, Pigweed [9, 14]: 80 | Plant response rating, Pigweed [9, 15]: 90 | Plant response rating, Pigweed [9, 16]: 100 | Plant response rating, Oat, Wild [11, 14]: 40 | Plant response rating, Oat, Wild [11, 15]: 40 | Plant response rating, Oat, Wild [11, 16]: 85 | Plant response rating, Flood, Rice [12, 18]: 45 | Plant response rating, Rice [12, 19]: 0 | Plant response rating, Rice [12, 20]: 30 | Rice plant response rating [12, 21]: 0 | Plant response rating, Flood, Sedge, Umbrella [13, 18]: 85 | Plant response rating, Sedge, Umbrella [13, 19]: 70 | Plant response rating, Sedge, Umbrella [13, 20]: 75 | Sedge, Umbrella plant response rating [13, 21]: 65

CC1(C)CC(=O)C(C(=O)c2cnc(-c3ccccc3)n(-c3ccccc3)c2=O)=C(O)C1 [Compound 225]
Plant response rating, Surinam Grass ([1]; 16 g ai/ha, 0 to 100 scale): 35 | Plant response rating, Surinam Grass [1, 14]: 75 | Plant response rating, Surinam Grass [1, 15]: 75 | Plant response rating, Blackgrass ([2]; 16 g ai/ha, 0 to 100 scale): 0 | Plant response rating, Blackgrass [2, 14]: 0 | Plant response rating, Blackgrass [2, 15]: 5 | Plant response rating, Blackgrass [2, 17]: 15 | Plant response rating, Corn ([3]; 16 g ai/ha, 0 to 100 scale): 10 | Plant response rating, Corn [3, 14]: 40 | Plant response rating, Corn [3, 15]: 50 | Plant response rating, Corn [3, 17]: 70 | Plant response rating, Foxtail, Giant ([4]; 16 g ai/ha, 0 to 100 scale): 75 | Plant response rating, Foxtail, Giant [4, 14]: 75 | Plant response rating, Foxtail, Giant [4, 15]: 80 | Plant response rating, Foxtail, Giant [4, 17]: 85 | Plant response rating, Goosegrass ([5]; 16 g ai/ha, 0 to 100 scale): 80 | Plant response rating, Goosegrass [5, 14]: 85 | Plant response rating, Goosegrass [5, 15]: 90 | Plant response rating, Goosegrass [5, 17]: 95 | Plant response rating, Foxtail, Green ([6]; 16 g ai/ha, 0 to 100 scale): 85 | Plant response rating, Foxtail, Green [6, 14]: 85 | Plant response rating, Foxtail, Green [6, 15]: 98 | Plant response rating, Foxtail, Green [6, 17]: 98 | Plant response rating, Johnsongrass ([7]; 16 g ai/ha, 0 to 100 scale): 20 | Plant response rating, Johnsongrass [7, 14]: 60 | Plant response rating, Johnsongrass [7, 15]: 75 | Plant response rating, Johnsongrass [7, 17]: 75 | Plant response rating, Lambsquarters ([8]; 16 g ai/ha, 0 to 100 scale): 85 | Plant response rating, Lambsquarters [8, 14]: 85 | Plant response rating, Lambsquarters [8, 15]: 85 | Plant response rating, Lambsquarters [8, 17]: 98 | Plant response rating, Pigweed ([9]; 16 g ai/ha, 0 to 100 scale): 80 | Plant response rating, Pigweed [9, 14]: 90 | Plant response rating, Pigweed [9, 15]: 95 | Plant response rating, Ragweed ([10]; 16 g ai/ha, 0 to 100 scale): 70 | Plant response rating, Ragweed [10, 14]: 75 | Plant response rating, Ragweed [10, 15]: 80 | Plant response rating, Oat, Wild ([11]; 16 g ai/ha, 0 to 100 scale): 25 | Plant response rating, Oat, Wild [11, 14]: 45 | Plant response rating, Oat, Wild [11, 15]: 50
